Converted amounts (≈) assume the structure as drawn. “And” between values parts separate entries of the source, which are not always exact repeats. Identical values can stand only once.
What was measured:
Staphylococcus aureus [1] = experiment: Inhibition of EtBr efflux in Staphylococcus aureus SA-1 assessed as reduction in fluorescence intensity at 50 uM measured after 30 mins by spectrophotometry relative to control; type: functional; set-up: scale not given: the % may be the effect or the level left
HepG2 = experiment: Cytotoxicity against human HepG2 cells assessed as cell growth inhibition incubated for 2 days by MTT assay; type: functional, cell-based; settings: HepG2, 48 h
[2] = Cytotoxicity against human WI-38 cells assessed as cell growth inhibition incubated for 2 days by MTT assay; type: toxicity, cell-based
MCF7 = experiment: Cytotoxicity against human MCF7 cells assessed as cell growth inhibition incubated for 2 days by MTT assay; type: functional, cell-based; settings: MCF7, 48 h
TGF-beta receptor type-1 = biological target: T1, TGF-beta receptor type-1 (Homo sapiens, UniProt P36897); experiment: Inhibition of human TGF-beta-R1 using TMB substrate incubated for 2.5 hrs by microplate reader analysis
T1 sequence (P36897 whole entry): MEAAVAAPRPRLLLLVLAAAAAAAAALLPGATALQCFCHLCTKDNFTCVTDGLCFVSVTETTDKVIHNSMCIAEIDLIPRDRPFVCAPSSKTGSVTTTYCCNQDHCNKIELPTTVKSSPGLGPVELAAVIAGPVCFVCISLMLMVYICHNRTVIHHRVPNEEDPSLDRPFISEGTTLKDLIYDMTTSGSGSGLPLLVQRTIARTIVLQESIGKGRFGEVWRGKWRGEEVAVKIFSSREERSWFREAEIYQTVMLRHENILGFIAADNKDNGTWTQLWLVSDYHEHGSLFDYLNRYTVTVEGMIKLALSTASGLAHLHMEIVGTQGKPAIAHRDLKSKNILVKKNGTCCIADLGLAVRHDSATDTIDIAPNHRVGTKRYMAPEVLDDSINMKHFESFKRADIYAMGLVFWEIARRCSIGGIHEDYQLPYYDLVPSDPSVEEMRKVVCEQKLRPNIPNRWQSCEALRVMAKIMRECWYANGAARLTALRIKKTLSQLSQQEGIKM

PC-3 = experiment: Cytotoxicity against human PC-3 cells assessed as cell growth inhibition incubated for 2 days by MTT assay; type: functional, cell-based; settings: PC-3, 48 h
Epidermophyton floccosum [3] = experiment: Antifungal activity against Epidermophyton floccosum 6999 assessed as fungal growth inhibition by spectrophotometry; type: functional
[4] = test system: Trichophyton mentagrophytes; experiment: Antifungal activity against Trichophyton mentagrophytes 5432 assessed as fungal growth inhibition by spectrophotometry; type: functional
Trichophyton tonsurans [5] = experiment: Antifungal activity against Trichophyton tonsurans 700 assessed as fungal growth inhibition by spectrophotometry; type: functional
[6] = test system: Trichophyton mentagrophytes; experiment: Antifungal activity against Trichophyton mentagrophytes 5431 assessed as fungal growth inhibition by spectrophotometry; type: functional
Trichophyton rubrum = experiment: Antifungal activity against Trichophyton rubrum 6753 assessed as fungal growth inhibition by spectrophotometry; type: functional
Homo sapiens [7] = species: Homo sapiens; experiment: Induction of CaCC (unknown origin) current potentiation at 10 uM relative to control
Enterococcus faecalis = experiment: Antibacterial activity against Enterococcus faecalis assessed as bacterial growth inhibition; type: functional
Heyndrickxia coagulans = experiment: Antibacterial activity against Bacillus coagulans assessed as bacterial growth inhibition; type: functional
Escherichia coli [8] = experiment: Antibacterial activity against Escherichia coli assessed as bacterial growth inhibition; type: functional
Candida parapsilosis = experiment: Antifungal activity against Candida parapsilosis ATCC 22019 assessed as fungal growth inhibition by spectrophotometry; type: functional; settings: Lodderomyces parapsilosis
Epidermophyton floccosum [9] = experiment: Antifungal activity against Epidermophyton floccosum 6754 assessed as fungal growth inhibition by spectrophotometry; type: functional
K562 = experiment: Cytotoxicity against human K562 cells assessed as cell growth inhibition; type: functional, cell-based
Leishmania amazonensis = experiment: Anti-promastigote activity against Leishmania amazonensis (IFLA/BR/67/PH8) assessed as promastigote growth inhibition incubated for 72 hrs by microscopic analysis; type: functional, organism-based; settings: Leishmania amazonensis, IFLA/BR/67/PH8, 72 h
DNA = experiment: Binding affinity to parasitic DNA assessed as intrinsic binding constant by UV-visible absorption spectrophotometry; type: nucleic-acid assay
JAR = experiment: Cytotoxicity against human JAR cells assessed as cell growth inhibition at 10 uM relative to control; type: functional
Perkinsus sp. = experiment: Antiprotozoal activity against Perkinsus sp. assessed as reduction in hypnospore viability at 500 uM measured after 48 hrs by microscopic analysis relative to control; type: functional
Candida tropicalis = experiment: Antifungal activity against Candida tropicalis URM 4262 assessed as fungal growth inhibition around drug-chitosan film at 1.28 mg/ml; type: functional; settings: read-out: DIZ
Staphylococcus aureus [10] = experiment: Antibacterial activity against Staphylococcus aureus NCIM 2010 assessed as reduction in bacterial growth incubated for 8 hrs by absorbance based assay; type: functional, organism-based; settings: NCIM 2010, 8 h
Pseudomonas aeruginosa = experiment: Antibacterial activity against Pseudomonas aeruginosa NCIM 2036 assessed as bacterial growth inhibition incubated for 8 hrs by absorbance based assay; type: functional
Staphylococcus aureus [11] = experiment: Antibacterial activity against Staphylococcus aureus NCIM 2010 assessed as bacterial growth inhibition incubated for 8 hrs by absorbance based assay; type: functional
Bacillus subtilis [12] = experiment: Antibacterial activity against Bacillus subtilis NCIM 2079 assessed as bacterial growth inhibition incubated for 8 hrs by absorbance based assay; type: functional
Escherichia coli [13] = experiment: Antibacterial activity against Escherichia coli NCIM 2688 assessed as bacterial growth inhibition incubated for 8 hrs by absorbance based assay; type: functional
Bacillus subtilis [14] = experiment: Antibacterial activity against Bacillus subtilis NCIM 2079 assessed as reduction in bacterial growth incubated for 8 hrs by absorbance based assay; type: functional, organism-based; settings: NCIM 2079, 8 h
[15] = test system: Mycobacterium tuberculosis; experiment: Antimycobacterial activity against Mycobacterium tuberculosis H37Ra incubated for 8 to 12 days by XTT reduction menadione assay; type: functional; settings: time 8-12 day
[16] = test system: Mycobacterium tuberculosis; experiment: Antimycobacterial activity against Mycobacterium tuberculosis H37Ra assessed as bacterial growth inhibition incubated for 8 to 12 days by XTT reduction menadione assay; type: functional; settings: time 8-12 day
Staphylococcus aureus [17] = experiment: Antibacterial activity against Staphylococcus aureus NCIM 2010 assessed as bacterial growth inhibition incubated for 8 hrs; type: functional, organism-based; settings: NCIM 2010, 8 h
[18] = Inhibition of CaCC (unknown origin) current potentiation; set-up: species or system Homo sapiens
[19] = Inhibition of CaCC current potentiation in rat cerebellar Purkinje neurons by electrophysiological method
Epidermophyton floccosum [20] = experiment: Antifungal activity against Epidermophyton floccosum assessed as fungal growth inhibition incubated for 7 days by spectrophotometry; type: functional; settings: 168 h, time 7 day
Trichophyton tonsurans [21] = experiment: Antifungal activity against Trichophyton tonsurans 2822 assessed as fungal growth inhibition by spectrophotometry; type: functional
Homo sapiens [22] = species: Homo sapiens; experiment: Inhibition of CaCC (unknown origin) current potentiation at 10 uM relative to control

In the case of `CCCCCCCC(=O)N1CCc2c(sc(NC(=O)C(F)(F)F)c2C(=O)OCC)C1`, the Activity (Staphylococcus aureus [1]) is reported as 85%.
`N#Cc1c(NC(=O)/C=C/c2ccc(O)cc2)sc2c1CCC2` showed an IC50 (HepG2) of 3.55 µM, an IC50 at 2 days [2] of 236 µM and an IC50 (MCF7) of 4.92 µM. The IC50 (TGF-beta receptor type-1) was 0.087 µM and the IC50 (PC-3) was 3.4 µM.
Molecule `COc1cc(/C=N/c2sccc2C#N)cc(OC)c1OC` has an MIC (Epidermophyton floccosum [3]) of 256 µg/mL (≈ 847 µM), an MIC [4] of 128 µg/mL (≈ 423 µM) and an MIC (Trichophyton tonsurans [5]) of 128 µg/mL (≈ 423 µM). The MIC [6] was 256 µg/mL (≈ 847 µM) and the MIC (Trichophyton rubrum) was 64 µg/mL (≈ 212 µM).
With `COC(=O)c1c(NC(=O)Cn2cc(CNC34CC5CC(CC(C5)C3)C4)nn2)sc2c1CCC(C(C)(C)C)C2` (configuration not stated) the Activity (Homo sapiens [7]) was 35%.
Molecule `O=C(N[C@H](CO)[C@H](O)c1ccc([N+](=O)[O-])cc1)C(Cl)Cl` [CHLORAMPHENICOL] has an MIC (Enterococcus faecalis) of 0.05 µg/mL (≈ 0.155 µM), an MIC (Heyndrickxia coagulans) of 0.41 µg/mL (≈ 1.27 µM) and an MIC (Escherichia coli [8]) of 0.05 µg/mL (≈ 0.155 µM).
`N#Cc1ccsc1/N=C/c1ccc([N+](=O)[O-])cc1` gave an MIC (Candida parapsilosis) of 1020 µg/mL (≈ 3980 µM), an MIC (Epidermophyton floccosum [9]) of 512 µg/mL (≈ 1990 µM) and an MIC (Epidermophyton floccosum [3]) of 1020 µg/mL (≈ 3980 µM). It also gave an MIC (Trichophyton tonsurans [5]) of 512 µg/mL (≈ 1990 µM) and an MIC (Trichophyton rubrum) of 64 µg/mL (≈ 249 µM).
For `CCOC(=O)C1=C(Nc2cccc([N+](=O)[O-])c2)S/C(=C\c2ccc[nH]2)C1=O`, the IC50 (K562) was 87.2 µM.
With `COc1ccc2nc3cc(Cl)ccc3c(Nc3sc4c(c3C#N)CCCC4)c2c1` the EC50 (Leishmania amazonensis) was 11 µM and the Kb (DNA) was 1 10^4/M.
In the case of `COc1ccc(OC)c(/C=C/C(=O)Nc2sc3c(c2C#N)CCC3)c1`, the IC50 (HepG2) is reported as 2.7 µM, the IC50 at 2 days [2] is reported as 185 µM and the IC50 (MCF7) is reported as 3.2 µM. For the same molecule, the IC50 (TGF-beta receptor type-1) was 0.09 µM and 0.087 µM and the IC50 (PC-3) was 1.35 µM.
For `COc1ccc2nc3cc(Cl)ccc3c(Nc3sc4c(c3C#N)CCC4)c2c1`, the EC50 (Leishmania amazonensis) was 9.6 µM and the Kb (DNA) was 1 10^4/M.
Molecule `CCOC(=O)C1=C(Nc2ccccc2)S/C(=C\c2ccc(F)c(C#N)c2)C1=O` has an inhibition at 10 µM (JAR) of 9.9%.
Work on `N#Cc1c(N)sc2c1CCCC2` yielded an Activity (Perkinsus sp.) of 38% and a zone of inhibition at 1280 µg/mL (Candida tropicalis) of 1.5 mm.
For `COC(=O)c1c(NC(=O)N[C@@H](C(=O)N[C@@H]2C(=O)N3C(C(=O)O)=C(C)CS[C@H]23)c2ccccc2)sc2c1CCCCCC2`, the EC50 (Staphylococcus aureus [10]) was 0.18 µM, the MIC (Pseudomonas aeruginosa) was > 10 µg/mL and the MIC (Staphylococcus aureus [11]) was 0.46 µg/mL (≈ 0.751 µM). For the same molecule, the MIC (Bacillus subtilis [12]) was 2.35 µg/mL (≈ 3.84 µM), the MIC (Escherichia coli [13]) was > 10 µg/mL and the EC50 (Bacillus subtilis [14]) was 0.26 µM. The MIC [15] was 0.782 µg/mL (≈ 1.28 µM), the EC5 [16] was 0.782 µM and the EC50 (Staphylococcus aureus [17]) was 0.18 µM.
In the case of `CCOC(=O)c1c(NC(=O)C(F)(F)F)sc2c1CCN(C(=O)CCCCCBr)C2`, the Activity (Staphylococcus aureus [1]) is reported as 125%.
Work on `COC(=O)c1c(NC(=O)Cn2cc(CNC34CC5CC(CC(C5)C3)C4)nn2)sc2c1CCCC2` yielded an IC50 [18] of 1.6 µM and an IC50 [19] of 1.6 µM.
Molecule `N#Cc1ccsc1/N=C/c1ccc(Br)cc1` has an MIC (Epidermophyton floccosum [20]) of 101 µM (≈ 29.4 µg/mL), an MIC (Candida parapsilosis) of 128 µg/mL (≈ 440 µM) and an MIC (Epidermophyton floccosum [9]) of 512 µg/mL (≈ 1760 µM). The MIC (Epidermophyton floccosum [3]) was 512 µg/mL (≈ 1760 µM), the MIC [4] was 1020 µg/mL (≈ 3520 µM) and the MIC (Trichophyton tonsurans [21]) was 1020 µg/mL (≈ 3520 µM). It also gave an MIC (Trichophyton tonsurans [5]) of 64 µg/mL (≈ 220 µM), an MIC [6] of 128 µg/mL (≈ 440 µM) and an MIC (Trichophyton rubrum) of 32 µg/mL (≈ 110 µM).
For `N#Cc1ccsc1/N=C/c1ccccc1[N+](=O)[O-]`, the MIC (Candida parapsilosis) was 128 µg/mL (≈ 498 µM) and the MIC (Epidermophyton floccosum [3]) was 32 µg/mL (≈ 124 µM).
`N#Cc1ccsc1/N=C/c1ccccc1` showed an MIC (Epidermophyton floccosum [9]) of 512 µg/mL (≈ 2410 µM), an MIC (Epidermophyton floccosum [3]) of 16 µg/mL (≈ 75.4 µM) and an MIC [4] of 256 µg/mL (≈ 1210 µM). The MIC (Trichophyton tonsurans [21]) was 32 µg/mL (≈ 151 µM) and the MIC (Trichophyton tonsurans [5]) was 32 µg/mL (≈ 151 µM).
Molecule `C=CCNC(=S)Nc1sc2c(c1C(=O)OC)CCCC2` has an inhibition (Homo sapiens [22]) of 40%.
`COc1ccc(OC)c(/C=C/C(=O)Nc2sc3c(c2C#N)CCCC3)c1` showed an IC50 (HepG2) of 2.85 µM, an IC50 at 2 days [2] of 260 µM and an IC50 (MCF7) of 3.5 µM. The IC50 (TGF-beta receptor type-1) was 0.087 µM and the IC50 (PC-3) was 2.64 µM.
